One data set deals with GLP-1 receptor (Homo sapiens, UniProt P43220). Nature of the data set: HSA modulated binding assay, GLP-1 receptor. The conditions noted are these: binding with 2% HSA to binding with 0% HSA.
In data set [1] the test system is mice fed a Gubra amylin NASH (GAN) diet. Briefly: Biological effects in GAN diet-induced NASH mice. Type of data set: in vivo. The conditions noted are these: after two weeks. Here is the method: NASH was induced in mice by feeding mice a Gubra amylin NASH (GAN) diet as described in Boland et al. World J Gastroenterol. 2019, 25(33): 4904-4920. One week prior to administration of a first dose of compounds, the mice were weighed and randomized, and their food intake was measured. Mice were randomly assigned to dosing groups, with twelve mice per group. […] Compound dose titration (nmol/kg): 0.6 (day 0), 1.2 (day 1), 2.4 (day 2), 4.8 (day 3), 4.8 (day 4), 12 (day 5), 30.0 (from day 6).
After two weeks, animals were sacrificed. Plasma enzymes (P-ALT (alanine aminotransferase) and P-AST (aspartate aminotransferase)), total plasma triglycerides, and total plasma cholesterol were measured, and terminal necropsy of each liver was carried out, determining relative liver weight as a percentage of body weight, assaying total liver biochemistry including total liver triglycerides, plasma insulin and total liver cholesterol, as well as histological evaluation of Galectin-3, and alpha-smooth muscle actin.

The target of a further data set is T1, GIP receptor (Homo sapiens, UniProt P48546).
T1 sequence (P48546 22-466): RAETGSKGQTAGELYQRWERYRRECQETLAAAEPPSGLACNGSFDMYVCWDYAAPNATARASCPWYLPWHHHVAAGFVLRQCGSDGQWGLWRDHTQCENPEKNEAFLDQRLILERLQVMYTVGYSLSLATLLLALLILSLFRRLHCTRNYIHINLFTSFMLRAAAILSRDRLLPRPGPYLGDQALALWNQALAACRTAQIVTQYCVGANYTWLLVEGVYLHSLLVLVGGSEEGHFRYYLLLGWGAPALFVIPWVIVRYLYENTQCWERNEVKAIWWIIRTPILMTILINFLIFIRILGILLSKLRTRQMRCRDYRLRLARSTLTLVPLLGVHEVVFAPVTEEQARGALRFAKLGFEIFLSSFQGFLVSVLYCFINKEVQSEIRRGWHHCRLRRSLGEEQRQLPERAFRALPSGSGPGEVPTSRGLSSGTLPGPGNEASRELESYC
Briefly: HSA modulated binding assay, GIP receptor. The conditions noted are these: binding with 2% HSA to binding with 0% HSA.

The nature of data set [2]: Pharmacokinetic study of Compounds 4, 14, 15, 17 in monkeys. The conditions noted are these: cynomolgus monkey, plasma, sc, 0.2 mg/kg. Here is the method: The formulations were administered to cynomolgus monkeys at a dose of 0.2 mg/kg. Plasma concentration versus time data was collected and pharmacokinetic values determined.
Where [3] appears, read: liver Galectin-3, histological quantitative assessment.
The mark [4] stands for this setting: liver alpha-smooth muscle actin, histological quantitative assessment.

Numbered stars: 1 amine (or outer) side, 2 acyl side, 3 side chain; on linkers, the order of the positions; unused ones are H or OH. Square brackets hold non-standard residues; d marks the D form. Side chains are listed from the residue outwards. Peptide text beside a SMILES is read from it. * marks the point of attachment. Nonadecanoyl(19-PO3H2) = O=C(CCCCCCCCCCCCCCCCCCP(=O)(O)O)*; γGlu = O=C(O)[C@H](CCC(=O)[*:2])N[*:1]; AEEA = NCCOCCOCC(=O)O; Aib = CC(C)(N)C(=O)O

Here are results for four compounds from patent publication US20260097126A1, “PHARMACEUTICAL FORMULATIONS AND METHODS FOR THE TREATMENT OF METABOLIC AND LIVER DISORDERS” (priority 2022, published 2026).

The term AUC(0-inf) denotes the area under the concentration-time curve extrapolated to infinity. A high value points to more exposure. The AUC(0-t) is exposure summed from dosing to a finite time, without extrapolation to infinity. Low readings indicate low exposure, high ones high exposure. For orientation: CL/F means clearance divided by bioavailability, as obtained after extravascular dosing. A word on the Cmax: it is the highest concentration seen after dosing. As a reminder, the Tmax is the time from dosing to the highest level. A word on the Vd/F: it is the apparent distribution volume after extravascular dosing. Broadly, the half-life is the time needed for the level to fall by half in the phase considered. A low value points to rapid decline.

GLP-1 receptor, sequence (P43220 24-463): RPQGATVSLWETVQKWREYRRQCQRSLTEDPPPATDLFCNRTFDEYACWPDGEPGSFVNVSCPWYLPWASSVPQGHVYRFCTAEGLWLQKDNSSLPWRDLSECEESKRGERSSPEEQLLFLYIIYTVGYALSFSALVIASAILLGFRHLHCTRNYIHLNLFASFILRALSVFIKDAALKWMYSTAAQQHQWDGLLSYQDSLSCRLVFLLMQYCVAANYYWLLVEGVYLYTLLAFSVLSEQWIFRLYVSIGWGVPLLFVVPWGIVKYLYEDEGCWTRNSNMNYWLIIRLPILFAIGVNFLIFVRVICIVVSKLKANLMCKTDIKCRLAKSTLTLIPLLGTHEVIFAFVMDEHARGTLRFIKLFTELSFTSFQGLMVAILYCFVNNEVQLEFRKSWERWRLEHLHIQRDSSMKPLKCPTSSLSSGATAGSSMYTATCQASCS

As for `CC[C@H](C)[C@H](NC(=O)[C@H](CC(C)C)NC(=O)[C@H](Cc1c[nH]c2ccccc12)NC(=O)[C@H](CCC(N)=O)NC(=O)[C@@H](NC(=O)[C@H](Cc1ccccc1)NC(=O)[C@H](C)NC(=O)[C@H](CCCCNC(=O)COCCOCCNC(=O)COCCOCCNC(=O)CC[C@H](NC(=O)CCCCCCCCCCCCCCCCCCP(=O)(O)OCc1ccccc1)P(=O)(O)O)NC(=O)[C@H](CCC(N)=O)NC(=O)[C@H](C)NC(=O)[C@@H](NC(=O)[C@H](CCCCN)NC(=O)[C@H](CC(=O)O)NC(=O)[C@H](CC(C)C)NC(=O)C(C)(C)NC(=O)[C@@H](NC(=O)[C@H](CO)NC(=O)[C@H](Cc1ccc(O)cc1)NC(=O)[C@H](CC(=O)O)NC(=O)[C@H](CO)NC(=O)[C@@H](NC(=O)[C@H](Cc1ccccc1)NC(=O)[C@@H](NC(=O)CNC(=O)[C@H](CCC(=O)O)NC(=O)C(C)(C)NC(=O)[C@@H](N)Cc1ccc(O)cc1)[C@@H](C)O)[C@@H](C)O)[C@@H](C)CC)[C@@H](C)CC)C(C)C)C(=O)N[C@@H](C)C(=O)NCC(=O)NCC(=O)N1CCC[C@H]1C(=O)N[C@@H](CO)C(=O)N[C@@H](CO)C(=O)NCC(=O)N[C@@H](C)C(=O)N1CCC[C@H]1C(=O)N1CCC[C@H]1C(=O)N1CCC[C@H]1C(=O)N[C@@H](CO)C(N)=O` [Compound 12], at GLP-1 receptor, the “GLP-1 receptor Ratio of HSA/No HSA” value is reported as 5.26. In addition, in data set [1], the “liver Galectin-3 compared to tirzepatide or vehicle (in words)” value is “lower relative and total liver Galectin-3 as compared to administration of tirzepatide or vehicle alone”; the “liver alpha-smooth muscle actin compared to tirzepatide (in words)” value was “lower relative and total liver alpha-smooth muscle actin as compared to administration of tirzepatide”; the “liver triglycerides compared to tirzepatide or vehicle (in words)” value is “lower relative and total liver triglycerides as compared to administration of tirzepatide or vehicle alone”. In addition, in data set [1] (setting [3]), the “Gal-3 Relative” value stood at 5.7 ± 0.5 percent fractional area and the “Gal-3 Total” value is recorded as 113 ± 10 mg. Moreover, in data set [1] (setting [4]), the “α-SMA Relative” value worked out at 4.4 ± 0.6 percent fractional area and the “α-SMA Total” value turned out to be 84 ± 8 mg. In data set [1] (liver triglycerides), the “TG Relative” value turned out to be 35 ± 3 mg per/g liver and the “TG Total” value is listed as 63 ± 5 mg per/liver. For the same compound, on GIP receptor, the “GIP receptor Ratio of HSA/No HSA” value was determined as 1.70.

Turning to `CC[C@H](C)[C@H](NC(=O)[C@H](CC(C)C)NC(=O)[C@H](Cc1c[nH]c2ccccc12)NC(=O)[C@H](CCC(N)=O)NC(=O)[C@@H](NC(=O)[C@H](Cc1ccccc1)NC(=O)[C@H](C)NC(=O)[C@H](CCCCNC(=O)COCCOCCNC(=O)COCCOCCNC(=O)CC[C@H](NC(=O)CCCCCCCCCCCCCCCCCCP(=O)(O)O)C(=O)O)NC(=O)[C@H](CCC(N)=O)NC(=O)[C@H](C)NC(=O)[C@@H](NC(=O)[C@H](CCCCN)NC(=O)[C@H](CC(=O)O)NC(=O)[C@H](CC(C)C)NC(=O)C(C)(C)NC(=O)[C@@H](NC(=O)[C@H](CO)NC(=O)[C@H](Cc1ccc(O)cc1)NC(=O)[C@H](CC(=O)O)NC(=O)[C@H](CO)NC(=O)[C@@H](NC(=O)[C@H](Cc1ccccc1)NC(=O)[C@@H](NC(=O)CNC(=O)[C@H](CCC(=O)O)NC(=O)C(C)(C)NC(=O)[C@@H](N)Cc1ccc(O)cc1)[C@@H](C)O)[C@@H](C)O)[C@@H](C)CC)[C@@H](C)CC)C(C)C)C(=O)N[C@@H](C)C(=O)NCC(=O)NCC(=O)N1CCC[C@H]1C(=O)N[C@@H](CO)C(=O)N[C@@H](CO)C(=O)NCC(=O)N[C@@H](C)C(=O)N1CCC[C@H]1C(=O)N1CCC[C@H]1C(=O)N1CCC[C@H]1C(=O)N[C@@H](CO)C(N)=O` [Compound 14], in data set [2], the AUC(0-inf) stood at 179 µg·h/mL, the AUC(0-t) was determined as 178 µg·h/mL, the CL/F was 28.6 mL/day/kg and the Cmax turned out to be 1.43 µg/mL. In addition, in data set [2], the time of peak concentration (Tmax) came to 24 h, the Vd/F was determined as 0.104 L/kg and the half-life was 60.9 h.

Consider `CC[C@H](C)[C@H](NC(=O)[C@H](CC(C)C)NC(=O)[C@H](Cc1c[nH]c2ccccc12)NC(=O)[C@H](CCC(N)=O)NC(=O)[C@@H](NC(=O)[C@H](Cc1ccccc1)NC(=O)[C@H](C)NC(=O)[C@H](CCC(N)=O)NC(=O)[C@H](CCC(N)=O)NC(=O)[C@H](C)NC(=O)[C@@H](NC(=O)[C@H](CCCCNC(=O)COCCOCCNC(=O)COCCOCCNC(=O)CC[C@H](NC(=O)CCCCCCCCCCCCCCCCCCP(=O)(O)O)C(=O)O)NC(=O)[C@H](CC(=O)O)NC(=O)[C@H](CC(C)C)NC(=O)C(C)(C)NC(=O)[C@@H](NC(=O)[C@H](CO)NC(=O)[C@H](Cc1ccc(O)cc1)NC(=O)[C@H](CC(=O)O)NC(=O)[C@H](CO)NC(=O)[C@@H](NC(=O)[C@H](Cc1ccccc1)NC(=O)[C@@H](NC(=O)CNC(=O)[C@H](CCC(=O)O)NC(=O)C(C)(C)NC(=O)[C@@H](N)Cc1ccc(O)cc1)[C@@H](C)O)[C@@H](C)O)[C@@H](C)CC)[C@@H](C)CC)C(C)C)C(=O)N[C@@H](C)C(=O)NCC(=O)NCC(=O)N1CCC[C@H]1C(=O)N[C@@H](CO)C(=O)N[C@@H](CO)C(=O)NCC(=O)N[C@@H](C)C(=O)N1CCC[C@H]1C(=O)N1CCC[C@H]1C(=O)N1CCC[C@H]1C(=O)N[C@@H](CO)C(N)=O` [Compound 15] (H-Y[Aib]EGTFTSDYSI[Aib]LDK([AEEA-AEEA-γGlu-Nonadecanoyl(19-PO3H2)])IAQQAFVQWLIAGGPSSGAPPPS-NH2), for which, in data set [2], the AUC(0-inf) was 227 µg·h/mL, the AUC(0-t) was 221 µg·h/mL, the CL/F is 21.4 mL/day/kg and the peak level (Cmax) was 2.26 µg/mL. In data set [2], the Tmax was 18.7 h, the Vd/F was determined as 0.114 L/kg and the half-life was 89.3 h.

In data set [2], `CC[C@H](C)[C@H](NC(=O)[C@H](CC(C)C)NC(=O)[C@H](Cc1c[nH]c2ccccc12)NC(=O)[C@H](CCC(N)=O)NC(=O)[C@@H](NC(=O)[C@H](Cc1ccccc1)NC(=O)[C@H](C)NC(=O)[C@H](CCCCNC(=O)COCCOCCNC(=O)COCCOCCNC(=O)CC[C@H](NC(=O)CCCCCCCCCCCCCCCCCCP(=O)(O)O)C(=O)O)NC(=O)[C@H](CCC(N)=O)NC(=O)[C@H](C)NC(=O)[C@@H](NC(=O)[C@H](CCCCN)NC(=O)[C@H](CC(=O)O)NC(=O)[C@H](CC(C)C)NC(=O)C(C)(C)NC(=O)[C@@H](NC(=O)[C@H](CO)NC(=O)[C@H](Cc1ccc(O)cc1)NC(=O)[C@H](CC(=O)O)NC(=O)[C@H](CO)NC(=O)[C@@H](NC(=O)[C@H](Cc1ccccc1)NC(=O)[C@@H](NC(=O)CNC(=O)[C@H](CCC(=O)O)NC(=O)C(C)(C)NC(=O)[C@@H](N)Cc1ccc(O)cc1)[C@@H](C)O)[C@@H](C)O)[C@@H](C)CC)C(C)C)C(C)C)C(=O)N[C@@H](CCCNC(=N)N)C(=O)NCC(=O)NCC(=O)N1CCC[C@H]1C(=O)N[C@@H](CO)C(=O)N[C@@H](CO)C(=O)NCC(=O)N[C@@H](C)C(=O)N1CCC[C@H]1C(=O)N1CCC[C@H]1C(=O)N1CCC[C@H]1C(=O)N[C@@H](CO)C(N)=O` [Compound 17] (H-Y[Aib]EGTFTSDYSI[Aib]LDKVAQK([AEEA-AEEA-γGlu-Nonadecanoyl(19-PO3H2)])AFVQWLIRGGPSSGAPPPS-NH2) gave an AUC(0-inf) of 346 µg·h/mL, an AUC(0-t) of 316 µg·h/mL, a CL/F of 14.2 mL/day/kg and a Cmax of 1.98 µg/mL. Also, in data set [2], the Tmax was 28 h, the Vd/F was determined as 0.113 L/kg and the half-life was 134 h.
